Legend:
14-3-3σ [1] = target: T1, 14-3-3σ (Homo sapiens, UniProt P31947); test: FA, Kd of 15-mer RAF peptides
T1 sequence (P31947 1-248): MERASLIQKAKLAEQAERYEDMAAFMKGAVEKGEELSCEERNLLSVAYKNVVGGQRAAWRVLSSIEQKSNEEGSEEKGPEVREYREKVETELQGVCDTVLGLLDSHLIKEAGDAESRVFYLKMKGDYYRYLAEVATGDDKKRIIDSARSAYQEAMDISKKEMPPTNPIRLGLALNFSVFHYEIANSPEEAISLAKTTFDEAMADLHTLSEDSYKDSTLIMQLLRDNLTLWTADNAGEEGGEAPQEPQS
Procedure: Ea ch compound was measured in triplicates, i n two i ndependent experi ments. Fluorescence anisotropy measurements were performed directly and a€er overnight incubaton at room temperature.
Fluorescence anisotropy measurements were performed a€er overnight incubaton at room temperature .

[2] = tested on: 80 peptides representing a diverse set of 14-3-3 clients; test: FA selectivity panel, single point; conditions: 10.5 μM compound, 100 nM client peptides, overnight; hit = change in anisotropy of more than 15 units
Procedure: concentraton (50 μM, maximum eﬀect) was used.
giving the anisotropy change (ΔAU ) .
sele tme: 0 ms, gain: optmal).

14-3-3σ/C-RAF259 [3] = target: T2, 14-3-3σ/C-RAF259 (Homo sapiens, UniProt P31947); test: Fluorescence anisotropy (FA) compound titration; type: binding; conditions: 10 nM C-RAF259-FAM 10-mer, 5 μΜ 14-3-3σ, overnight; read-out: Compound titrations EC50 value C-RAF259
Procedure: (§1) In analogy to our previous work, two orthogonal assays were used for screening (Figure S2). […] Dose responses of compounds were performed in the absence and presence of the C-RAF259 phospho-peptide to distinguish between neutral binders and cooperative molecular glues. The experiment was performed as a time course, with measurements every 8 h, after an 1 h incubation. Additionally, the compounds were tested in a fluorescence anisotropy (FA) assay in the presence of the 5-carboxyfluorescein-(FAM)-labeled C-RAF259 peptide. […] The full dose–response data for all compounds are available in the SI (Tables S2–S5, Figures S5–S8, Figures S15–S18, Figures S25–S32, Figures S37–S39). The dose–response data from both assays were also visually compared in the form of bar graphs. […] For FA experiments, the EC50 values from the overnight measurement were calculated and plotted as bar graphs showing the […] log EC50 value (pEC50). Compounds acting as MGs were expected to show increases in both types of bar graphs.
(§2) transferred in the assay plates.
(§3) The reacton mixtures were incubated
(§4) dispensed in the assay plates.
(§5) incubaton at room temperature .

14-3-3σ/C-RAF = 14-3-3σ/C-RAF (Homo sapiens, UniProt P31947); test: cell-based
14-3-3σ/C-RAF, sequence (P04049 whole entry partner, one chain of several): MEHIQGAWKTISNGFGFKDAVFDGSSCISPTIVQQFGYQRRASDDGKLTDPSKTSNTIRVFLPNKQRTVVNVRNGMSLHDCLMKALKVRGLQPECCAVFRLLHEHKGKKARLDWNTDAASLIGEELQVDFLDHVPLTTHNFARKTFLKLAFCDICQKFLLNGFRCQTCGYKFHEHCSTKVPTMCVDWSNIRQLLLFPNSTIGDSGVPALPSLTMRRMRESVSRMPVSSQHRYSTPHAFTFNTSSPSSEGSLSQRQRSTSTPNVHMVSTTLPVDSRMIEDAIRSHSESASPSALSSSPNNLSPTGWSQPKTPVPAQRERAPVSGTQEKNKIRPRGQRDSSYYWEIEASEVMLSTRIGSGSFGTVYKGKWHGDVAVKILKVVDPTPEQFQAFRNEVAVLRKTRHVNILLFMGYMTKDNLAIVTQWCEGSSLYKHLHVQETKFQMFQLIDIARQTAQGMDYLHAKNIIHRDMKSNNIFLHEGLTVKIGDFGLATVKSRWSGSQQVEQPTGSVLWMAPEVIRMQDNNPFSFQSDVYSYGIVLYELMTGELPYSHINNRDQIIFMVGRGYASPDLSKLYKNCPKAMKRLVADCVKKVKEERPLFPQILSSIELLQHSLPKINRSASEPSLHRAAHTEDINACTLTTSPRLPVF

14-3-3σ [4] = target: T1, 14-3-3σ; test: Intact mass spectrometry assay, apo (no peptide); type: binding; parameters: full-length for mass spectrometry and fluorescence anisotropy assays; made in house; host or cells: E. coli Rosetta 2(DE3)pLysS, pPROEX HTb vector; conditions: 1 μM compound, 100 nM 14-3-3σ
Procedure: as §1, §2, §3, §4, §5

14-3-3σ/C-RAF259 [5] = target: T2, 14-3-3σ/C-RAF259; test: FA protein titration, C-RAF259 peptide; conditions: appKd DMSO / appKd compound
14-3-3σ/C-RAF259 [6] = target: T2, 14-3-3σ/C-RAF259; test: Intact mass spectrometry assay with C-RAF259 phospho-peptide; type: binding; parameters: full-length for mass spectrometry and fluorescence anisotropy assays; made in house; host or cells: E. coli Rosetta 2(DE3)pLysS (14-3-3σ); peptides from Elim Biopharmaceuticals; conditions: 1 μM compound, 100 nM 14-3-3σ, 18 µM peptide
Procedure: as §1, §2, §3, §4, §5

C-RAF/C-RAF = conditions: with N-RAS Q61L; 100% = DMSO mBU
N-RAS Q61L/C-RAF = conditions: HEK293T; 100% = DMSO mBU, 0% = N-RAS/C-RAF R89L
[7] = Solubility in the assay conditions; type: physicochemical; conditions: MS assay conditions
pERK [8] = test: Lumit immunoassay for pERK levels in HEK293T cells; type: cell-based; conditions: pERK modulation
pERK [9] = test: Lumit immunoassay for pERK with 14-3-3 C38N mutant; type: cell-based; conditions: HEK293T

EC50 (14-3-3σ/C-RAF259 [3]) | % bound, APO, 1h (14-3-3σ [4]) | % bound, APO, 8h (14-3-3σ [4]) | % bound, APO, 16h (14-3-3σ [4]) | % bound, APO, 24h (14-3-3σ [4]) | Fold stabilization (100 µM compound), C-RAF259 (10mer) (14-3-3σ/C-RAF259 [5]) | % bound, C-RAF259 (11mer), 1h (14-3-3σ/C-RAF259 [6]) | % bound, C-RAF259 (11mer), 8h (14-3-3σ/C-RAF259 [6]) | % bound, C-RAF259 (11mer), 16h (14-3-3σ/C-RAF259 [6]) | % bound, C-RAF259 (11mer), 24h (14-3-3σ/C-RAF259 [6]) | SMILES | also measured
1000 ± 500 nM | – | – | – | – | – | – | – | – | – | O=C(CCl)NCC1CCN(S(=O)(=O)c2ccc(Cl)c(F)c2)CC1 [Compound 29] | EC50 (14-3-3σ/C-RAF): 140 nM
2000 ± 1000 nM | 0% | 0.9% | 2.9% | 4.4% | 39 fold | 28% | 43.9% | 61.9% | 83.3% | O=C(CCl)NCC1CCN(S(=O)(=O)c2ccc(Br)c(F)c2F)CC1 [Compound 38] | –
17000 ± 3000 nM | 0% | 1.9% | 3.8% | 3.8% | 7 fold | 39.3% | 64.6% | 78.1% | 96.7% | O=C(CCl)NCC1CCN(S(=O)(=O)c2cc(F)c(Br)cc2F)CC1 [Compound 39] | –
2000 ± 1000 nM | 0% | 0.5% | 1.5% | 4.7% | 13 fold | 35.9% | 60.5% | 78.9% | 93.9% | O=C(CCl)NCC1CCN(S(=O)(=O)c2cc(F)c(Br)c(F)c2)CC1 [Compound 40] | –
11000 ± 1000 nM | 0.5% | 1.9% | 4.7% | 8.2% | 49 fold | 25.8% | 39.4% | 49% | 84% | CC1(CNC(=O)CCl)CCN(S(=O)(=O)c2ccc(Br)c(F)c2)CC1 [Compound 46] | –
12000 ± 1000 nM | 4.7% | 17.3% | 28% | 51.8% | 6 fold | 16.5% | 45.2% | 71.2% | 80.5% | O=C(CCl)N1CC2CC1CN2S(=O)(=O)c1ccc(Br)c(F)c1 (centres unmarked) [Compound 58] | –
1000 ± 1000 nM | – | – | – | – | – | – | – | – | – | O=C(CCl)N1CCC2(CCN(S(=O)(=O)c3ccc(Br)c(F)c3)C2)C1 (centres unmarked) [Compound 86] | EC50 (14-3-3σ/C-RAF): 300 nM

The next lines start with the compound.

SMILES | EC50 (14-3-3σ/C-RAF259 [3]) | % bound, APO, 1h (14-3-3σ [4]) | % bound, APO, 8h (14-3-3σ [4]) | % bound, APO, 16h (14-3-3σ [4]) | % bound, APO, 24h (14-3-3σ [4]) | Fold stabilization (100 µM compound), C-RAF259 (10mer) (14-3-3σ/C-RAF259 [5]) | % bound, C-RAF259 (11mer), 1h (14-3-3σ/C-RAF259 [6]) | % bound, C-RAF259 (11mer), 8h (14-3-3σ/C-RAF259 [6]) | % bound, C-RAF259 (11mer), 16h (14-3-3σ/C-RAF259 [6]) | % bound, C-RAF259 (11mer), 24h (14-3-3σ/C-RAF259 [6]) | also measured
CC[C@H](C)[C@H](NC(=O)[C@H](CCCNC(=N)N)NC(=O)[C@H](CCC(N)=O)NC(=O)[C@H](CC(C)C)NC(=O)c1ccc2c(c1)C(=O)OC21c2ccc(O)cc2Oc2cc(O)ccc21)C(=O)N[C@@H](CCCNC(=N)N)C(=O)N[C@@H](CO)C(=O)N[C@H](C(=O)N[C@@H](COP(=O)(O)O)C(=O)N[C@H](C(=O)N1CCC[C@H]1C(=O)N[C@@H](CC(N)=O)C(=O)N[C@H](C(=O)N[C@@H](Cc1c[nH]cn1)C(=O)N[C@@H](CCSC)C(=O)N[C@H](C(N)=O)C(C)C)C(C)C)[C@@H](C)O)[C@@H](C)O [A-RAF 15-mer] | – | – | – | – | – | – | – | – | – | – | Kd (14-3-3σ [1]): 8000 to 10000 nM
CSCC[C@H](NC(=O)[C@H](Cc1c[nH]cn1)NC(=O)[C@@H](NC(=O)[C@H](CC(N)=O)NC(=O)[C@@H]1CCCN1C(=O)[C@@H](NC(=O)[C@H](COP(=O)(O)O)NC(=O)[C@@H](NC(=O)[C@H](CO)NC(=O)[C@H](CCCNC(=N)N)NC(=O)[C@H](CCC(N)=O)NC(=O)[C@H](CCCNC(=N)N)NC(=O)[C@H](CCC(N)=O)NC(=O)[C@H](CO)NC(=O)c1ccc2c(c1)C(=O)OC21c2ccc(O)cc2Oc2cc(O)ccc21)[C@@H](C)O)[C@@H](C)O)C(C)C)C(=O)N[C@H](C(N)=O)C(C)C [C-RAF 15-mer, 5-FAM-SQRQRST{pS}TPNVHMV-CONH2] | – | – | – | – | – | – | – | – | – | – | Kd (14-3-3σ [1]): 8000 to 10000 nM
O=C(CCl)NCC1CCN(S(=O)(=O)c2ccc(Br)cc2)CC1 [Compound 22] | – | – | – | – | – | – | – | – | – | – | clients emerged as hits [2]: six
O=C(CCl)N1CC2(CC(NS(=O)(=O)c3ccc(Br)c(F)c3)C2)C1 [Compound 64] | 15000 ± 2000 nM | 9.9% | 27.2% | 47.2% | 65% | 2 fold | 27.5% | 53.6% | 79% | 80.8% | –
O=C(CCl)N1CC2(C1)CN(S(=O)(=O)c1ccc(Br)c(F)c1)CCO2 [Compound 70] | 2000 nM | – | – | – | – | – | – | – | – | – | decrease in C-RAF homodimer formation (C-RAF/C-RAF): ~20%; reduction of the N-RAS Q61L/C-RAF interaction (N-RAS Q61L/C-RAF): no clear trend
O=C(CCl)N1CC2(C1)CN(S(=O)(=O)c1ccc(Br)cc1)CCO2 [Compound 78] | 2000 ± 1000 nM | – | – | – | – | – | – | – | – | – | decrease in C-RAF homodimer formation (C-RAF/C-RAF): ~20%; reduction of the N-RAS Q61L/C-RAF interaction (N-RAS Q61L/C-RAF): no clear trend; EC50 (14-3-3σ/C-RAF): 1200 nM; solubility in the assay conditions [7]: poor solubility
O=C(CCl)N1CC2(C1)CN(S(=O)(=O)c1ccc(I)cc1)CCO2 [Compound 79] | 2000 ± 1000 nM | – | – | – | – | – | – | – | – | – | solubility in the assay conditions [7]: poor solubility
CNc1ncc2cc(-c3cc(NC(=O)NCCC(C)(C)C)c(F)cc3C)c(C)nc2n1 [LY3009120, reference compound] | – | – | – | – | – | – | – | – | – | – | time taken to modulate the pathway (pERK [8]): 3 h
CC(=O)Nc1cccc(-n2c(=O)n(C3CC3)c(=O)c3c(Nc4ccc(I)cc4F)n(C)c(=O)c(C)c32)c1 [Trametinib, reference compound] | – | – | – | – | – | – | – | – | – | – | effect on pERK with the C38N mutant (pERK [9]): same effect; time taken to modulate the pathway (pERK [8]): 3 h
